Experiments:
[1] = tested on: dermal microvascular endothelial cells; assay: Scratch (wound healing) assay, dermal microvascular endothelial cells; format: cell-based, human; conditions: 10 nM ICI 118,551 or 1 μM salbutamol
Experimental: Endothelial cells were grown to confluence in medium on plastic tissue culture dishes (Fisher Scientific, Pittsburgh, Pa.) coated with 60 μg/ml collagen I (Vitrogen 100, Collagen Corp., Palo Alto, Calif.) in PBS for 1 hour at 37° C. […] Demarcated areas of each wound were photographed on an inverted Nikon Diaphot microscope at the time of wounding (time 0) up to wound healing as described in Pullar et al., (2003) J Biol Chem 278 (25), 22555-22562. Image J was used to measure each demarcated wound area at time 0 and 20 hours post wounding and the results were averaged to calculate the % healing for control and β2-AR ligand-treated cells.

[2] = tested on: endothelial cells; assay: In vitro model of angiogenesis: tubule formation on Matrigel; format: cell-based
Experimental: An experimental in vitro model was employed to observe the effect of β2-AR ligands (ie agonists and antagonists) on endothelial cell vessel formation. […] The endothelial cells plated on the top of the Matrigel were maintained in a 37° C. incubator with 5% CO2 Tubule formation was observed every 4 hours up to 21 hours using an inverted Nikon Diaphot microscope.

[3] = tested on: aortic rings; assay: Rat aortic ring assay (capillary outgrowth); format: cell-based; conditions: after 90 hours; 10 nM ICI 118,551 or 1 μM salbutamol; vs untreated
Experimental: A rat aortic ring assay (as described in Nicosia and Ottinetti (1990) Lab Invest 63 (1), 115-122; and Diglio et al (1989) Lab Invest 60 (4), 523-531) was used to study the effect of β2-AR ligands on vessel formation. Rat aorta was obtained from animals that were euthanised under a Home Office Approved Schedule 1 method. The aorta was cut into small rings with sterile scissors and each piece was submerged under a 50 μl bead of Matrigel in the bottom of each in a 24-well dish. […] Vessel growth was observed using an inverted Nikon Diaphot microscope every 30 hours and images were captured as described in Pullar et al (2005) J Cell Sci 118 (Pt 9), 2023-2034; Pullar et al (2006) Mol Biol Cell and Pullar et al (2001) Cell Motil Cytoskeleton 50 (4), 207-217.

[4] = tested on: chick chorioallantoic membrane (CAM); assay: Chick chorioallantoic membrane (CAM) assay; format: in vivo; conditions: day 8 chick embryos, 48 hours; 10 μM agonist, 10 μM forskolin or 10 nM ICI 118,551; control 15
Experimental: Fertilised chicken eggs were obtained within the first two days of embryonic development, and were cleaned and incubated at 37° C. for 24 hours. On day 3 of development, 1-2 ml of albumin was removed from the apex end of each egg with a sterile needle. A window of 1.5×1.5 cm was created in the shell with a Dremmel tool, and was sealed with clear adhesive tape. […] Images of the exposed vasculature were captured 48 hours later using a Nikon microscope/imaging system. Scale bar=1 mm. Bifurcation points were counted in four fields for the control/treatment groups.

[5] = tested on: dermal microvascular endothelial cells; assay: Galvanotaxis in applied electric field, dermal microvascular endothelial cells; format: cell-based, human; conditions: electric field 100 mV/mm
Experimental: (§1) Endothelial cells were seeded at low density in medium within electrostatic chambers for 2-3 hours prior to exposure to an electric field (EF). A roof consisting of a No 1 cover slip was applied and sealed on top of the chamber, as previously described (in Pullar et al (2005) J Cell Sci 118 (Pt 9), 2023-2034; Pullar et al (2006) Mol Biol Cell and Pullar et al (2001) Cell Motil Cytoskeleton 50 (4), 207-217). A direct current EF of 100 mV/mm was applied through agar bridges connecting silver/silver chloride electrodes to the culture medium at either side of the chamber. The chamber was placed on an inverted microscope with temperature controlled at 37° C.
(§2) Time-lapse images were recorded every 10 minutes over 1 hour and analyzed with Improvision software as previously described (Pullar et al (2005) J Cell Sci 118 (Pt 9), 2023-2034; Pullar et al (2006) Mol Biol Cell and Pullar et al (2001) Cell Motil Cytoskeleton 50 (4), 207-217). […] Therefore, the average of directedness values of a population of cells gives an objective quantification of how, directionally, cells have moved within the electric field. […] Migration rate was analyzed with the following two parameters, ie trajectory speed (μm/min) is the total length of the migration trajectory of a cell divided by the given period of time (ie 60 minutes).

[6] = tested on: aortic macrovascular endothelial cells; assay: Galvanotaxis in applied electric field, aortic macrovascular endothelial cells; format: cell-based, human; conditions: electric field 100 mV/mm
Experimental: as §1, §2

[7] = tested on: MTLn3 cells; assay: Galvanotaxis in applied electric field, MTLn3 mammary adenocarcinoma cells; format: cell-based
[8] = tested on: B16-BL6 melanoma cells; assay: β2-AR/melanoma in-vivo study (B16-BL6 in SKH1 mice); conditions: for tumour surface area / tumour average surface area: s.c. pump, ICI 118,551 0.75 mg/kg/day or salbutamol 3 mg/kg/day, 7 mice per group
From the text: Twenty one, 5 week-old female SKH1 mice (immunocompetent, hairless albino strain, Charles River, Wilmington, Mass.) weighing 18 g-25 g were divided into 3 groups of 7 mice.
Melanomas were imaged daily by both transillumination and surface photography at 2× magnification, using an upright Nikon microscope controlled by Pixera software (San Jose, Calif.). Mice were sacrificed after 11 days by CO2 asphyxiation, and the tumor, lungs and the liver were excised and fixed in 10% buffered formalin for 7 days.
All mice were sacrificed by CO2 asphyxiation, 11 days post melanoma cell injection. The tumours were excised from their sub-dermal location, fixed in saline-buffered 10% formalin for 10 days, and then weighed. The average weight of the tumours from each group was calculated and statistically analysed.

[9] = 1 μM salbutamol, control cosine=0.5

| SMILES | increase in rate of wound closure [1] [%] | time to highly organized, mature capillary network on Matrigel ([2]; 10 nM ICI 118,551, untreated cells: within 21 hours) [h] | capillary outgrowth from cut edges of aortic rings [3] | number of vessel bifurcation points [4] | increase in directional migration ([5]; 10 nM ICI 118,551) [%] | increase in directional migration ([6]; 10 nM ICI 118,551) [%] | effect on galvanotaxis [7] | average weight of tumours ([8]; 11 days post melanoma cell injection, vs control group) | number of mice without any signs of tumour development ([8]; after 3 days, of 7 mice, ICI 118,551 0.75 mg/kg/day) | tumour surface area ([8]; after 3 days) | number of mice with no visible signs of tumour development ([8]; after 7 days and by end of study (11 days), of 7 mice, ICI 118,551 0.75 mg/kg/day) | tumour average surface area ([8]; after 7 days) | size of excised tumours (photograph) ([8]; at eleven days, vs control) | capillary network formed on Matrigel ([2]; by 21 hours, 1 μM salbutamol) | migration directedness (cosine) [5, 9] | migration directedness (cosine) [6, 9] | reduction of directional migration [7] | surface area of the very large tumour of one mouse ([8]; after 7 days, single mouse, salbutamol 3 mg/kg/day) [mm^2] |
| --- | --- | --- | --- | --- | --- | --- | --- | --- | --- | --- | --- | --- | --- | --- | --- | --- | --- | --- |
| Cc1ccc(OCC(O)C(C)NC(C)C)c2c1CCC2 (stereo not drawn) [ICI 118,551] | 40 | ≤ 12 | decreased the length of the capillaries | > 50 | ≤ 60 | ≤ 60 | little effect on galvanotaxis | statistically lower than that for the control group | two | 1.8+/−0.61 mm^2 | one | 4.4+/−1.5 mm^2 | much smaller than those in the control sample | – | – | – | – | – |
| C=C[C@@]1(C)CC(=O)[C@]2(O)[C@@]3(C)[C@@H](O)CCC(C)(C)[C@@H]3[C@H](O)[C@H](OC(C)=O)[C@@]2(C)O1 [forskolin] | – | – | – | 5 | – | – | – | – | – | – | – | – | – | – | – | – | – | – |
| CC(C)(C)NCC(O)c1ccc(O)c(CO)c1 (stereo not drawn) [salbutamol] | 40 | – | significantly increased the length and number of the capillaries | 4 | – | – | – | – | – | 4.1+/−1.3 mm^2 | – | 10.4+/−2.9 mm^2 | – | disorganized, immature capillary network | 0 | 0 | more than 50% | 24.8 |

Source: patent publication US20100075969A1, “Angiogenesis” (UNIVERSITY OF LEICESTER, priority 2006, published 2010)
